From ChEMBL document CHEMBL4507319 (2021)

Legend:
[1] = molecular target: Vascular endothelial growth factor receptor 2 (Homo sapiens) (UniProt P35968); test: KDR(h) Eurofins kinase panel; conditions: Compound concentration 1.0 uM
[2] = molecular target: Protein kinase C eta type (Homo sapiens) (UniProt P24723); test: PKCeta (h) Eurofins kinase panel; conditions: Compound concentration 1.0 uM
[3] = molecular target: T1, cGMP-dependent protein kinase 2 (Homo sapiens) (UniProt Q13237); test: PRKG2(h) Eurofins kinase panel; conditions: Compound concentration 1.0 uM
T1 sequence (whole entry): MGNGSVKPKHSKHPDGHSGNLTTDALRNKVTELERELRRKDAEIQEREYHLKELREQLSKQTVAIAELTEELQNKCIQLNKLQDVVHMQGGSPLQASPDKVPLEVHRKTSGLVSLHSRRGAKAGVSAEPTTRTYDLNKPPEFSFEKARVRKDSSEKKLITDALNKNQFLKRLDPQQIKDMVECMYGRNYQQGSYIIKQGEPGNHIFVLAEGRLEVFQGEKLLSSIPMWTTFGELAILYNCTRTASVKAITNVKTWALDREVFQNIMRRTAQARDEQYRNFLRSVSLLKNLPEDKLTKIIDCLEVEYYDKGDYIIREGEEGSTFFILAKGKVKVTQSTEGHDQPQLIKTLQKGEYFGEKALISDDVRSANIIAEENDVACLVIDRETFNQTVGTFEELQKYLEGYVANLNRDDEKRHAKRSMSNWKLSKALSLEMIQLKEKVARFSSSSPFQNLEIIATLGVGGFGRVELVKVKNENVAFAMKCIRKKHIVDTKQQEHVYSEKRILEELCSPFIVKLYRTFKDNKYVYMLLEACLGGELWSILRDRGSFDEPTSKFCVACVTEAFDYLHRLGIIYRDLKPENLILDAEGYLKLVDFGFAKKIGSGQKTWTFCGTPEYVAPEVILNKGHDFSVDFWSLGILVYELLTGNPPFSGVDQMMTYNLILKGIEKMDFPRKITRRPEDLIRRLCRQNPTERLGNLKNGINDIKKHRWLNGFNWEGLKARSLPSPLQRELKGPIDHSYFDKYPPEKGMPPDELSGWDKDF

[4] = molecular target: Serine/threonine-protein kinase PLK2 (Homo sapiens) (UniProt Q9NYY3); test: Snk(h) Eurofins kinase panel; conditions: Compound concentration 1.0 uM
[5] = molecular target: T2, SNF-related serine/threonine-protein kinase (Homo sapiens) (UniProt Q9NRH2); test: SNRK(h) Eurofins kinase panel; conditions: Compound concentration 1.0 uM
T2 sequence (whole entry): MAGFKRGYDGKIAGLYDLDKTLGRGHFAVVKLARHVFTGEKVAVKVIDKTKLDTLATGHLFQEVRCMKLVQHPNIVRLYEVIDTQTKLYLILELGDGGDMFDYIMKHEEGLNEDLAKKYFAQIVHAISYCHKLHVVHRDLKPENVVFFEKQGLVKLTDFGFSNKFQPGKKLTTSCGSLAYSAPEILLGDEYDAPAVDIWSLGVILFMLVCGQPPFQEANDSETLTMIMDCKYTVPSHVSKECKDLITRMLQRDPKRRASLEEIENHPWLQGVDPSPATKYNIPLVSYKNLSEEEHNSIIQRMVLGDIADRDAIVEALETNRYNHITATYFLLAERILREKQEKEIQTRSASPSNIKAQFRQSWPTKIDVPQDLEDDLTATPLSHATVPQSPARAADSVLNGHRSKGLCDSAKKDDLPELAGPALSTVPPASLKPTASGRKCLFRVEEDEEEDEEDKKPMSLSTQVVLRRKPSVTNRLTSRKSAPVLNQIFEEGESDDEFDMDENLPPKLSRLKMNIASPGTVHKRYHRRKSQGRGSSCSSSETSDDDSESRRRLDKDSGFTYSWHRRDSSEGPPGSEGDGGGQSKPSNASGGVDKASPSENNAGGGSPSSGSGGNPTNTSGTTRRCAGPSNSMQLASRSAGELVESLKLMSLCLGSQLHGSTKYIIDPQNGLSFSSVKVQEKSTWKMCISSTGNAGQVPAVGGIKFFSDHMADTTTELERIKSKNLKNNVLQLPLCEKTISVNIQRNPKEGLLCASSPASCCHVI

[6] = tested on: CWR22R; test: 22Rv1 cell line Proliferation assay; type: functional, Homo sapiens; conditions: time 6 day
[7] = molecular target: Ribosomal protein S6 kinase alpha-3 (Homo sapiens, UniProt P51812); conditions: Compound concentration 1.0 uM
Ribosomal protein S6 kinase alpha-3, sequence (P51812 whole entry): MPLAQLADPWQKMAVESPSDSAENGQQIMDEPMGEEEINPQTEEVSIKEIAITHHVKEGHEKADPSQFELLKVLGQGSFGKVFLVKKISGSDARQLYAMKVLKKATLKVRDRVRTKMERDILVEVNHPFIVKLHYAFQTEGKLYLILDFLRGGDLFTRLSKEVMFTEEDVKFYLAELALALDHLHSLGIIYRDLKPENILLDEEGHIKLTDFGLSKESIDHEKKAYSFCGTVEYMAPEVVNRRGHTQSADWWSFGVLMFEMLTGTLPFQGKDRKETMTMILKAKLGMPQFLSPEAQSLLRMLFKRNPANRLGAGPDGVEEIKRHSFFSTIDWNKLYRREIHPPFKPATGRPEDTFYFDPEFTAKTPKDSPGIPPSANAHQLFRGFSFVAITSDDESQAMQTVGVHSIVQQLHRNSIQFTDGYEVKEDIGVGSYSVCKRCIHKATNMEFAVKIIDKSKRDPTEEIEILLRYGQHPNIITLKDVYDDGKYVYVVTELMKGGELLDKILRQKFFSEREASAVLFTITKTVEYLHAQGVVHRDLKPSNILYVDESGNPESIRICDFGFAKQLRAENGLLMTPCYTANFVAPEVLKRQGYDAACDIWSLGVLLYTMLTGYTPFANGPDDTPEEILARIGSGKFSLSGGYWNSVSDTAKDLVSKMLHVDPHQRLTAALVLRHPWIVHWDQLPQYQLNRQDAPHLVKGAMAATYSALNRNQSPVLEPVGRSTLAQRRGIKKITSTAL

Vascular endothelial growth factor receptor 2 (Homo sapiens), sequence (P35968 whole entry): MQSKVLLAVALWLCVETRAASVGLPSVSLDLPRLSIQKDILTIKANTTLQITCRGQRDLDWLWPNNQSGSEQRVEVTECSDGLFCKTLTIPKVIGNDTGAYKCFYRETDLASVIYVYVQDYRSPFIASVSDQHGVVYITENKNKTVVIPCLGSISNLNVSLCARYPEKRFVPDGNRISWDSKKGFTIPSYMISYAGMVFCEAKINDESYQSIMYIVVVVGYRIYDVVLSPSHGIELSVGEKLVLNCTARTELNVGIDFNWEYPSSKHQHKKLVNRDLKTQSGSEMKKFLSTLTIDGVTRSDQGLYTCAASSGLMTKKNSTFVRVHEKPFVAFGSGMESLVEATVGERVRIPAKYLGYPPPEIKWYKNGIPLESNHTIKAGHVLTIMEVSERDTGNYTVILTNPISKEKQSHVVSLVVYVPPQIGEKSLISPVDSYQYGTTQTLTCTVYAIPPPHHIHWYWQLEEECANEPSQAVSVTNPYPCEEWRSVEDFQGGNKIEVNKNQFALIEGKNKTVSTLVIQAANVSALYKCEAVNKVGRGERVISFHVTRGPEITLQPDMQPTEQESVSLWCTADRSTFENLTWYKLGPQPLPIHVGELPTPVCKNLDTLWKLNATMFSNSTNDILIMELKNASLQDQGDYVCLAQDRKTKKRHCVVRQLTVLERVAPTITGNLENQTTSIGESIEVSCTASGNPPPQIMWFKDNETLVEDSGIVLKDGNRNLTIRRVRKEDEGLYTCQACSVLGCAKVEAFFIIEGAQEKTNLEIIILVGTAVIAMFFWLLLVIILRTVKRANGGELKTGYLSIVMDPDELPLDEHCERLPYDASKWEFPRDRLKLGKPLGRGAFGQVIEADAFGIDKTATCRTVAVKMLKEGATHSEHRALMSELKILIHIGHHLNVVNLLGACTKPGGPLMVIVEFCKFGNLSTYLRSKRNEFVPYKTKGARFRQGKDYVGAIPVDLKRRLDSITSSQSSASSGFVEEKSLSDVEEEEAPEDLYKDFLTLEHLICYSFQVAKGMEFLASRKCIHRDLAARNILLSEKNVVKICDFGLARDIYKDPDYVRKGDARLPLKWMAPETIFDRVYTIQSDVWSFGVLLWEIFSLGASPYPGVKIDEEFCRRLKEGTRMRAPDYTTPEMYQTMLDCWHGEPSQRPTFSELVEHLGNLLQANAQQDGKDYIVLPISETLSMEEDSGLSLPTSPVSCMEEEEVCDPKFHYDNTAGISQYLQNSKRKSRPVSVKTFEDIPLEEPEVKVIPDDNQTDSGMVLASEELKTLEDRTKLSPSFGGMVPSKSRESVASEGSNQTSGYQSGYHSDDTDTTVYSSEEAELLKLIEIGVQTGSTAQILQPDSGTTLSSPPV
Protein kinase C eta type (Homo sapiens), sequence (P24723 whole entry): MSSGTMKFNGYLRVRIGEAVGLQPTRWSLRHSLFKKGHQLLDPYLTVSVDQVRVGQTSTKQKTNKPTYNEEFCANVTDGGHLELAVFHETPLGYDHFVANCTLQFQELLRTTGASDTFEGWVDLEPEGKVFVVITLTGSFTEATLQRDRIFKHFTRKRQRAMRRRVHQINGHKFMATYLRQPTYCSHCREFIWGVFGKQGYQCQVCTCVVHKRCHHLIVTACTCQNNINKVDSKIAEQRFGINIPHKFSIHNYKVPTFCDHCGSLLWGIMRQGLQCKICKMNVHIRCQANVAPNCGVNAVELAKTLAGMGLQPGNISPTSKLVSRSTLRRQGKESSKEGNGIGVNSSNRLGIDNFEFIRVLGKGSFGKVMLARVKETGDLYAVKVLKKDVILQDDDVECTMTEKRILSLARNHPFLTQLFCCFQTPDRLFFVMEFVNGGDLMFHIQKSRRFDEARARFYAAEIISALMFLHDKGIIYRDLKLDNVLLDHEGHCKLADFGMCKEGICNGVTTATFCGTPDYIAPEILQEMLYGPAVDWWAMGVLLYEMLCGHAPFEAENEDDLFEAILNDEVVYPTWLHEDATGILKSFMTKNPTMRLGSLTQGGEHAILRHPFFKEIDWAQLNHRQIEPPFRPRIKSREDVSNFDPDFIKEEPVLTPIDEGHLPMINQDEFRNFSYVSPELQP
Serine/threonine-protein kinase PLK2 (Homo sapiens), sequence (Q9NYY3 whole entry, looked up): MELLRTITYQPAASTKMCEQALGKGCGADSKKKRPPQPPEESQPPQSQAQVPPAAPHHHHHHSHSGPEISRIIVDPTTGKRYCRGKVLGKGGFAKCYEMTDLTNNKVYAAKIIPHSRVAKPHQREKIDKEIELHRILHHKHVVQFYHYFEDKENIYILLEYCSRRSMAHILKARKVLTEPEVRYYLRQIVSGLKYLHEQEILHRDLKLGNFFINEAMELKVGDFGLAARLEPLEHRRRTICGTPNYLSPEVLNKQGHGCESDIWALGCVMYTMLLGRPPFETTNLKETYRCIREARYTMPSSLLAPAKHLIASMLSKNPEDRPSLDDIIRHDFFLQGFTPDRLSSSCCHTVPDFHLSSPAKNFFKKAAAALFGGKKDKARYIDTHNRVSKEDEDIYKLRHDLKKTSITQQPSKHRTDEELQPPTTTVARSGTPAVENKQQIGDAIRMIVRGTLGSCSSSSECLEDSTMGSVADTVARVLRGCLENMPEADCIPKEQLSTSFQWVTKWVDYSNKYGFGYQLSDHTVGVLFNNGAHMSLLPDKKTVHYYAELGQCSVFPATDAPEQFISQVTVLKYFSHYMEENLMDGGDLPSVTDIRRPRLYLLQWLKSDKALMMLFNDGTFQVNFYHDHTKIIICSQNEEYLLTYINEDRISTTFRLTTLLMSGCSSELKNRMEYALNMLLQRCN

CCc1ccccc1C(=O)Nc1n[nH]c2c(C)c(F)c(C3C(C#N)=C(C)N(C)C(C)=C3C#N)cc12 [BAY-3827]
% residual kinase activity [1]: 90%
% residual kinase activity [2]: 92%
% residual kinase activity [3]: 79%
% residual kinase activity [4]: 100%
% residual kinase activity [5]: 113%
Cell Proliferation IC50 [6]: 5.55 µM
% residual kinase activity [7]: 0%
